Experimental findings from US11685734B2, “ATM kinase inhibitors and compositions and methods of use thereof” (CHDI Foundation, Inc., priority 2019, dated 2023) are described below.

The target in test [1] is Recombinant, full length human FLAG-tagged ATM (Homo sapiens (Human), UniProt Q13315). As to the kind of experiment: ATM ELISA for p53 S15 phosphorylation. The test is classed as biochemical. Particulars: 0.75 nM ATM, 25 nM p53, 10 μM ATP, 30 min at 20° C.; read-out: ATM BIO IC50. Here is the method:
ATM: Recombinant, full length human FLAG-tagged ATM activity (Eurofins 14-933) was measured in an ELISA for p53 S15 phosphorylation, in a 384 well V-bottom polypropylene plate (Greiner Bio One 781280). Reactions contained 0.75 nM ATM, 25 nM full length myc tagged p53 (Eurofins 23-034), 10 μM UltraPure ATP (Promega V915B) and serial dilutions of inhibitors (0.1% DMSO final) in 25 mM HEPES, pH 7.5. 5 mM MgCl2, 2.5 mM MnCl2, 0.006% Brij-35, 0.5% glycerol, 0.1 mg/ml BSA, 0.5 mM DTT and were allowed to proceed for 30 min at 20° C. 70 mM EDTA final terminated the kinase reactions. An aliquot of the terminated reaction (25 μl) was transferred to a 384-well, high binding microplate (Greiner Bio One 781061), precoated with anti-myc capture antibody overnight (Millipore 05-724) diluted in 1:1000 in PBS, then blocked with Odyssey blocking buffer (LI-COR Biosciences 92740000) for 60 min at 20° C. The terminated reaction was allowed to capture for 2 h at 20° C. Phosphorylation was measured using an antibody specific to p53 S15 phosphorylation (1:5000 Abcam ab38497), anti-rabbit HRP (1:1000 Cell Signalling Technology, 7074) and TMB (ab171522). Antibodies were diluted in Odyssey blocking buffer and incubated for 60 min at 20° C. Three washes with PBS containing 0.05% (v/v) Tween 20 (PBS-T) were performed between each incubation. The TMB reaction was stopped with an equal volume of 0.2 M sulfuric acid and absorbance read at 450 nm on the Perkin Elmer Envision within 30 min of terminating the reaction. […] IC50 values represent the mean from at least two independent experiments.

Test [2] has as its target cellular ATM activity (Homo sapiens (Human), UniProt Q13315). As to the kind of experiment: Inhibition of cellular ATM activity: etoposide-stimulated KAP1 phosphorylation in U20S cells. To be noted: 100 μM etoposide, 60 min, read-out: ATM CELL IC50. The test is classed as cell-based. Here is the method:
Inhibition of cellular ATM activity was determined by changes in etoposide-stimulated KAP1 phosphorylation, based on the work of Guo et al. 2014.
Cryopreserved U20S cells were plated overnight at 6 k cells/well in black walled, clear bottomed 384 well plates (Greiner Bio One 781090). After overnight incubation (37 C, 5% CO2), cells were incubated with titrations of test compounds (0.3% DMSO final) in the presence of 100 μM etoposide (Sigma E1383) to stimulate ATM via induction of double stranded DNA breaks. After 60 min, cells were fixed using 100% cold methanol and incubated at −20° C. for 10 min. Fixed cells were washed with PBS containing 0.05% (v/v) Tween 20 (PBS-T) prior to a 60 minute blocking step in Odyssey blocking buffer (LI-COR Biosciences 92740000). Primary antibodies (1:1000 phosphorylated KAP1: Cell Signalling Technology 4127, 1:5000 total KAP1: Cell Signaling Technology 5868) were diluted in Odyssey blocking buffer and incubated overnight at 4° C., before addition of IRDye(R) conjugated secondary antibodies (LI-COR Biociences 926-32211, LI-COR Biosciences 926-68070) diluted 1:2000 in Odyssey blocking buffer for 60 min at room temperature and detection by LI-COR Odyssey (ImageStudio version 2.1.10, focus offset 4 mm, resolution 169 μm, lowest quality, intensities of 1 and 3 for 700 and 800 channels respectively). Immunoreactivity was quantified and the ratio of phosphorylated KAP1 calculated by dividing by the total KAP1 immunoreactivity. The percentage of inhibition was calculated for each concentration of compound using 100% (100 μM etoposide+30 μM KU-60019) and 0% effect controls (100 μM etoposide+DMSO). IC50 values represent the mean from at least two independent experiments.

Chain of Recombinant, full length human FLAG-tagged ATM (Q13315 whole entry): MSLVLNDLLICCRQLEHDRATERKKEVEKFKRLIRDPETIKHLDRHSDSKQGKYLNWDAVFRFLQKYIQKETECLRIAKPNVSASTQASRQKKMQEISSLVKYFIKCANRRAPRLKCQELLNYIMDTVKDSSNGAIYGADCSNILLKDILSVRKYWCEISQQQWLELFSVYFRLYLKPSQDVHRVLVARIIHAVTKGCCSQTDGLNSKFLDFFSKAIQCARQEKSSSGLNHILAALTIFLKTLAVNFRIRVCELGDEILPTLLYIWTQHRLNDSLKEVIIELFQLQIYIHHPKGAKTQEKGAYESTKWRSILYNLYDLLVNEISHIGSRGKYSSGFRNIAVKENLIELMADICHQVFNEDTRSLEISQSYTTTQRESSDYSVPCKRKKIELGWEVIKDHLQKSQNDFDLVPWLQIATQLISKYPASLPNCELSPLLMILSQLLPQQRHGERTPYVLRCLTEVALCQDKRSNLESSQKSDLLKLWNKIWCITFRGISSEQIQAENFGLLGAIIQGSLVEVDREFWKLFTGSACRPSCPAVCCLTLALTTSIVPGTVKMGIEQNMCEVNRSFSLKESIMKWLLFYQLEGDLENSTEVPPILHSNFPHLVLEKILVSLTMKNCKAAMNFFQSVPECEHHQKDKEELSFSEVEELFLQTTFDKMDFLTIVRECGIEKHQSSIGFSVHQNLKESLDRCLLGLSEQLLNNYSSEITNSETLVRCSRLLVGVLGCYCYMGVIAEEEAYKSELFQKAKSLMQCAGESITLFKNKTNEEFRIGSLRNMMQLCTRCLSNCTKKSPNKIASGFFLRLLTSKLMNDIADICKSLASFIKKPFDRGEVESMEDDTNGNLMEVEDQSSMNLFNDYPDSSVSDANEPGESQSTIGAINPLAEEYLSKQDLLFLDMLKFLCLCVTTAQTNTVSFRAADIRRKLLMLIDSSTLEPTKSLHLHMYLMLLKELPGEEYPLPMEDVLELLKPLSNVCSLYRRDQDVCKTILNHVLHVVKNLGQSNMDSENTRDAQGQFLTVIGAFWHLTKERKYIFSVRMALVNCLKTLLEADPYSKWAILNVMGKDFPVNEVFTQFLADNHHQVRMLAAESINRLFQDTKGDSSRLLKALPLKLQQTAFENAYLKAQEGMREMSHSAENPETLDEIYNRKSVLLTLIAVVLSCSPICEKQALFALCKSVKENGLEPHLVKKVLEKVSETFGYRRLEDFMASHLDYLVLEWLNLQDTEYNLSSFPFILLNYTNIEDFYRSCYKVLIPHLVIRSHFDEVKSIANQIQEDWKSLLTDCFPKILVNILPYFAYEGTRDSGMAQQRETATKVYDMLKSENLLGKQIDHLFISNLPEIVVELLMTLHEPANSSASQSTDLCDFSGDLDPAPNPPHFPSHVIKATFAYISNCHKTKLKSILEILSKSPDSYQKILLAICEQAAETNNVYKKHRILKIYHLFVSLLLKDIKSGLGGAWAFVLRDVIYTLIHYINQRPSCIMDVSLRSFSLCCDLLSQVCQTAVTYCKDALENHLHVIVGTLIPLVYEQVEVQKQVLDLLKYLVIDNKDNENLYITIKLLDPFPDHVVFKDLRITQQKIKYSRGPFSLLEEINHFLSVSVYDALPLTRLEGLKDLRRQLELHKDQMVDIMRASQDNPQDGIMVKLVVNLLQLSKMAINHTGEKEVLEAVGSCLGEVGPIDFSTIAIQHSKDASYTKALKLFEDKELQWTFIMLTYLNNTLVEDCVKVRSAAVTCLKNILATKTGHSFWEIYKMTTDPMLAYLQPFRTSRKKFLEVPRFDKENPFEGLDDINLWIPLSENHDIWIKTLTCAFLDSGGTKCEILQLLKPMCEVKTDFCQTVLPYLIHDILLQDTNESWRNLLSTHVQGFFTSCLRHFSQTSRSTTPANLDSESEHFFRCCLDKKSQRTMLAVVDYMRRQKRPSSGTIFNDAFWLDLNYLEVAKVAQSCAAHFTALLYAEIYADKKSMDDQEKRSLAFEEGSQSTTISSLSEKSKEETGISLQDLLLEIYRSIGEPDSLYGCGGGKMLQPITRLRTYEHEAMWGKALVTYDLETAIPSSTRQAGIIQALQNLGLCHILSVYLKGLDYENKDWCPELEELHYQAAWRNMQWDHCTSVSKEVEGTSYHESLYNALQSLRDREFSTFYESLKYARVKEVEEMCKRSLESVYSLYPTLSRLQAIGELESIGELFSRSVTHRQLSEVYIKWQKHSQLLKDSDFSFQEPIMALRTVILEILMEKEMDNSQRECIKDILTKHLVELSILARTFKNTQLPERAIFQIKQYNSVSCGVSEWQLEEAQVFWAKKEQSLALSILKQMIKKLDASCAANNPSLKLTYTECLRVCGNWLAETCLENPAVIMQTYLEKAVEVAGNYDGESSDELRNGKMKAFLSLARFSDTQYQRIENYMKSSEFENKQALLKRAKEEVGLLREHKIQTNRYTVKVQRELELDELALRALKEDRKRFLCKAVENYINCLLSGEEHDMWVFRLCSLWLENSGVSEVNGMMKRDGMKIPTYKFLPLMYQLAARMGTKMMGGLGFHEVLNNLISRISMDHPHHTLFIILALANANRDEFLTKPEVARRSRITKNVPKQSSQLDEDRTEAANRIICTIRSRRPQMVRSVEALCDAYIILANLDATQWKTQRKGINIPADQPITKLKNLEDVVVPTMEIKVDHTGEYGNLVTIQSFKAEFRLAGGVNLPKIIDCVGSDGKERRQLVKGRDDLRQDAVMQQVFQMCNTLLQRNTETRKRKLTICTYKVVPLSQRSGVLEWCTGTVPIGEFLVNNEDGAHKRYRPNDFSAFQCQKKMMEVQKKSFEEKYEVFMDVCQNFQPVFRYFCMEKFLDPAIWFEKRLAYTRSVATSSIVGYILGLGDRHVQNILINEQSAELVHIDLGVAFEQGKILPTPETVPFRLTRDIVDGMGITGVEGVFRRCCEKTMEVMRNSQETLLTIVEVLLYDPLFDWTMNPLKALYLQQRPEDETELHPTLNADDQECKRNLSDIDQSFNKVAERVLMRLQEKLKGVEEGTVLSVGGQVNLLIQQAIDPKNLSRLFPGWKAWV
Chain of cellular ATM activity (Q13315 whole entry): as above

In general, IC50 refers to the concentration that inhibits the measured activity by half. Take `O=c1cc(N2CCOCC2)cc(N2CCC[C@@H]2Cc2ccccc2)[nH]1` [Example 1, (R)-6-(2-benzylpyrrolidin-1-yl)-4-morpholinopyridin-2(1H)-one]: the values for the 50% inhibitory concentration (IC50) in test [1] and in test [2] were 36.2 nM and 3380 nM, respectively.

As for `CC1CCC[C@H](Cc2ccccc2)N(c2nc(N3CCOCC3)cc(=O)[nH]2)C1` (single isomer, unassigned) [Example 247], the half-maximal inhibitory concentration (IC50) is 1.5 nM in test [1] and 194 nM in test [2].

For `Cc1cc(C[C@H]2CCCN2c2nc(N3CCOCC3)cc(=O)[nH]2)cc(C)n1` [Example 188], the IC50 came out at 28.7 nM in test [1] and 1060 nM in test [2].

As to `COc1ccccc1C[C@H]1CCCN1c1cc(N2CCOCC2)cc(=O)[nH]1` [Example 7, (R)-6-(2-(2-methoxybenzyl)pyrrolidin-1-yl)-4-morpholinopyridin-2(1H)-one], the half-maximal inhibitory concentration (IC50) in test [1] was 44.6 nM; in test [2], 1020 nM.

`COCCOc1cccc(C[C@H]2CCCCCN2c2nc(N3CCO[C@H](C)C3)cc(=O)[nH]2)c1` [Example 308, 2-((R)-2-(3-(2-methoxyethoxy)benzyl)azepan-1-yl)-6-((R)-2-methylmorpholino)pyrimidin-4(3H)-one]: the 50% inhibitory concentration (IC50) came out at 14.3 nM in test [1] and 560 nM in test [2].

For the compound `COc1ccc(C[C@H]2CCCCCN2c2cc(N3CCOCC3)cc(=O)[nH]2)cc1` [Example 29, 6-[(2R)-2-[(4-methoxyphenyl)methyl]azepan-1-yl]-4-morpholino-1H-pyridin-2-one], the IC50 stood at 32.5 nM in test [1] and 371 nM in test [2].

`C[C@H]1CCCN(c2nc(N3CCOCC3)cc(=O)[nH]2)[C@@H](Cc2ccccc2)C1` [Example 233]: the half-maximal inhibitory concentration (IC50) in test [1] turned out to be 1.2 nM; in test [2], 327 nM.

Consider `Cc1ccc(C[C@H]2CCCN2c2nc(N3CCOCC3)cc(=O)[nH]2)cc1` [Example 186], for which the results for the IC50 in test [1] and in test [2] were 14.4 nM and 852 nM, respectively.

Consider `O=c1cc(N2CCOCC2)nc(N2CCCC[C@@H]2Cc2ccccc2)[nH]1` [Example 199], for which the IC50 in test [1] turned out to be 2.8 nM; in test [2], 125 nM.

As for `C[C@@H]1CN(c2cc(=O)[nH]c(N3CCCCC[C@@H]3Cc3cccc4c3OCC4)n2)CCO1` [Example 305, 2-((R)-2-((2,3-dihydrobenzofuran-7-yl)methyl)azepan-1-yl)-6-((R)-2-methylmorpholino)pyrimidin-4(3H)-one], the figures for the IC50 in test [1] and in test [2] were 39 nM and 569 nM, respectively.

`O=c1cc(N2CCOCC2)cc(N2CCCCC[C@@H]2Cc2ccc(F)cc2)[nH]1` [Example 52, (R)-6-(2-(4-fluorobenzyl)azepan-1-yl)-4-morpholino pyridin-2(1H)-one]: the figures for the IC50 in test [1] and in test [2] were 35.3 nM and 839 nM, respectively.

For `O=c1cc(N2CCOCC2)nc(N2C[C@@H]3C[C@@H]3[C@@H]2Cc2ccc(F)cc2)[nH]1` [Example 207], the IC50 in test [1] worked out at 4.4 nM; in test [2] it was 207 nM.

As for `C[C@H]1CCCN(c2nc(N3CCOCC3)cc(=O)[nH]2)[C@@H](Cc2ccc(F)cc2)C1` [Example 235], the values for the IC50 in test [1] and in test [2] were 5.3 nM and 436 nM, respectively.

`C[C@@H]1CN(c2cc(=O)[nH]c(N3CC[C@@H](F)[C@@H]3Cc3ccccc3)n2)CCO1` [Example 319, 2-((2S,3R)-2-benzyl-3-fluoropyrrolidin-1-yl)-6-((R)-2-methylmorpholino)pyrimidin-4(3H)-one]: the IC50 is 5.3 nM in test [1] and 538 nM in test [2].

With `O=c1cc(N2CCOCC2)nc(N2CCC[C@@H]2Cc2ccc(Cl)c(Cl)c2)[nH]1` [Example 190], the half-inhibitory concentration (IC50) in test [1] was 4.2 nM; in test [2], 939 nM.

Turning to `COc1ccccc1C[C@H]1CCCCCN1c1cc(N2CCOCC2)cc(=O)[nH]1` [Example 27, (R)-6-(2-(2-methoxybenzyl)azepan-1-yl)-4-morpholinopyridin-2(1H)-one], the results for the IC50 in test [1] and in test [2] were 16.6 nM and 501 nM, respectively.

Regarding `CC1C[C@H](Cc2ccccc2)N(c2cc(N3CCOCC3)cc(=O)[nH]2)C1` (single isomer, unassigned) [Example 100, 6-((2R,4R*)-2-benzyl-4-methylpyrrolidin-1-yl)-4-morpholinopyridin-2(1H)-one], the concentration for half-maximal inhibition (IC50) in test [1] is 33.1 nM; in test [2], 1630 nM.

Consider `C[C@@H]1CN(c2cc(=O)[nH]c(N3CCCCC[C@@H]3Cc3ccc(F)cc3)n2)CCO1` [Example 304, 2-((R)-2-(4-fluorobenzyl)azepan-1-yl)-6-((R)-2-methylmorpholino)pyrimidin-4(3H)-one], for which the IC50 came out at 19.2 nM in test [1] and 957 nM in test [2].

As to `C[C@@H]1CCCN(c2cc(N3CCOCC3)cc(=O)[nH]2)[C@@H](Cc2ccccc2)C1` [Example 84, 6-((2R,4R)-2-benzyl-4-methylazepan-1-yl)-4-morpholinopyridin-2(1H)-one], the results for the half-maximal inhibitory concentration (IC50) in test [1] and in test [2] were 47.6 nM and 864 nM, respectively.

As for `O=c1cc(C2=CCOCC2)cc(N2CCCCC[C@@H]2Cc2ccccc2)[nH]1` [Example 167, (R)-6-(2-benzylazepan-1-yl)-4-(3,6-dihydro-2H-pyran-4-yl)pyridin-2(1H)-one], the IC50 stood at 38.7 nM in test [1] and 1540 nM in test [2].

As to `COc1cccc(C[C@H]2CCCCCN2c2nc(N3CCOCC3)cc(=O)[nH]2)c1` [Example 203], the 50% inhibitory concentration (IC50) in test [1] was found to be 1.9 nM; in test [2], 427 nM.

Take `CC1(C)CCCN(c2nc(N3CCOCC3)cc(=O)[nH]2)[C@@H](Cc2ccccc2)C1` [Example 242]: the IC50 in test [1] turned out to be 84.5 nM; in test [2] it was 9760 nM.

For the compound `O=c1cc(N2CCOCC2)cc(N2CCCCC[C@@H]2Cc2ccccc2F)[nH]1` [Example 78, (R)-6-(2-(2-fluorobenzyl)azepan-1-yl)-4-morpholinopyridin-2(1H)-one], the results for the IC50 in test [1] and in test [2] were 10.8 nM and 318 nM, respectively.

With `COc1ccc(OC)c(C[C@H]2CCCCCN2c2cc(N3CCOCC3)cc(=O)[nH]2)c1` [Example 66], the concentration for half-maximal inhibition (IC50) was 18.7 nM in test [1] and 603 nM in test [2].

In the case of `O=c1cc(N2CCOCC2)cc(N2CCCC(F)(F)C[C@@H]2Cc2ccccc2)[nH]1` [Example 74, (S)-6-(2-benzyl-4,4-difluoroazepan-1-yl)-4-morpholinopyridin-2(1H)-one], the half-inhibitory concentration (IC50) worked out at 11.2 nM in test [1] and 498 nM in test [2].

Consider `C[C@@H]1CN(c2cc(=O)[nH]c(N3CCC[C@@H]3Cc3ccccc3)n2)CCO1` [Example 271, 2-((R)-2-benzylpyrrolidin-1-yl)-6-((R)-2-methylmorpholino)pyrimidin-4(3H)-one], for which the IC50 in test [1] stood at 24.1 nM; in test [2], 2140 nM.

For the compound `C[C@@H]1CN(c2cc(=O)[nH]c(N3CCCCC[C@@H]3Cc3ccsc3)n2)CCO1` [Example 315, 6-((R)-2-methylmorpholino)-2-((R)-2-(thiophen-3-ylmethyl)azepan-1-yl)pyrimidin-4(3H)-one], the concentration for half-maximal inhibition (IC50) was 16.4 nM in test [1] and 813 nM in test [2].

In the case of `C[C@@H]1CN(c2cc(=O)[nH]c(N3C[C@H]4C[C@H]4[C@@H]3Cc3ccccc3)n2)CCO1` [Example 291, 2-((1R,2S,5S)-2-benzyl-3-azabicyclo[3.1.0]hexan-3-yl)-6-((R)-2-methylmorpholino)pyrimidin-4(3H)-one], the IC50 in test [1] was determined as 11.1 nM; in test [2], 562 nM.

In the case of `O=c1cc(N2CCOCC2)cc(N2CCCCC[C@@H]2Cc2ccccn2)[nH]1` [Example 33, (R)-4-morpholino-6-(2-(pyridin-2-ylmethyl)azepan-1-yl)pyridin-2(1H)-one], the IC50 in test [1] stood at 92.4 nM; in test [2], 1780 nM.
